In patent EP4603105A1, “PHARMACEUTICAL COMPOSITION CONTAINING CYCLIC COMPOUND HAVING SELECTIVE KRAS INHIBITORY EFFECT AGAINST HRAS AND NRAS” (CHUGAI SEIYAKU KABUSHIKI KAISHA, priority 2022, dated 2024):
Where a SMILES comes first, the peptide text is derived from it. Bridges are numbered along the chain shown (N, C = ends). [ ]: non-standard residue; d: D form. The star is where a group is joined. hPhe(3-Cl-4-CF3) = N[C@@H](CCc1ccc(C(F)(F)F)c(Cl)c1)C(=O)O; NPrPhe(4-CF3) = CCCN[C@@H](Cc1ccc(C(F)(F)F)cc1)C(=O)O; NMeAbu(4,4,4-F3) = CN[C@@H](CC(F)(F)F)C(=O)O; NMeGly(cPent) = CN[C@H](C(=O)O)C1CCCC1; Pro(4,4-F2) = O=C(O)[C@@H]1CC(F)(F)CN1; NMeGly(cBu) = CN[C@H](C(=O)O)C1CCC1; NMeD = CN[C@@H](CC(=O)O)C(=O)O; NMeL = CN[C@@H](CC(C)C)C(=O)O; NMeNva = CCC[C@H](NC)C(=O)O; NMeAbu = CC[C@H](NC)C(=O)O; Morpholide = C1CN(*)CCO1; NMeA = CN[C@@H](C)C(=O)O; Ac5c = NC1(C(=O)O)CCCC1; Aze = O=C(O)[C@@H]1CCN1; Ac4c = NC1(C(=O)O)CCC1; Sar = CNCC(=O)O

What was measured:
[1] = molecular target: GDP-bound NRAS wild-type protein (Homo sapiens, UniProt P01111); test: Binding to NRAS by surface plasmon resonance (SPR), KD and KD ratio to KRAS; conditions: ratio of KD for GDP-bound NRAS wild-type protein to KD for KRAS
GDP-bound NRAS wild-type protein, sequence (P01111 whole entry): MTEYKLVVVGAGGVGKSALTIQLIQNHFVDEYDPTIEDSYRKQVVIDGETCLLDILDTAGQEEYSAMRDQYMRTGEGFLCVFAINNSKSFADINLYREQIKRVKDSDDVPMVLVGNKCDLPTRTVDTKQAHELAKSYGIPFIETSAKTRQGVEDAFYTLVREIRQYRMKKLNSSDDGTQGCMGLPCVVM
Summary of the method: (§1)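 Running buffer contained 10 µM GDP and 10 mM MgCl2 to keep RAS in the GDP state, with 4% DMSO at pH 7.4. Compounds were flowed at 100 µL/min in 75 s steps of rising concentration over captured biotin-Avi RAS at 30°C. Sensorgrams were fitted 1:1 for KD.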

[2] = molecular target: HRAS wild-type protein (Homo sapiens, UniProt P01112); test: Binding to HRAS by surface plasmon resonance (SPR), KD and KD ratio to KRAS; conditions: ratio of KD for HRAS wild-type protein to KD for KRAS
HRAS wild-type protein, sequence (P01112 whole entry): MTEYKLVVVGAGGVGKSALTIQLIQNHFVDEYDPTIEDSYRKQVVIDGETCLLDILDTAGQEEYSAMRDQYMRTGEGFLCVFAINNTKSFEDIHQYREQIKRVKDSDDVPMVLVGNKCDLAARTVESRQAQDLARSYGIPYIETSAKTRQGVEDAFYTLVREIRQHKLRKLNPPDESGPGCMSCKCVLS
Summary of the method: as §1

[3] = test system: human lung cancer strain NCI-H441; type: cell-based
Summary of the method: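 Step one: dispense the test compound in serial DMSO dilutions. Step three: add the reagent and measure […].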

| SMILES | IC50 [3] [nM] | NRAS /KRAS [1] | HRAS /KRAS [2] |
| --- | --- | --- | --- |
| CCCN1C(=O)CN(C)C(=O)CN(C)C(=O)[C@H]([C@@H](C)CC)NC(=O)[C@H](CC)N(C)C(=O)C[C@@H](C(=O)N2CCOCC2)N(C)C(=O)[C@H](C2CCCC2)N(C)C(=O)C2(CCCC2)NC(=O)[C@@H]2CCCN2C(=O)[C@H](CCc2ccc(C(F)(F)F)c(Cl)c2)NC(=O)CN(C)C(=O)[C@@H]1Cc1ccc(C(F)(F)F)cc1 [PP0190] ([NMeAbu]I[Sar][Sar][NPrPhe(4-CF3)][Sar][hPhe(3-Cl-4-CF3)]P[Ac5c][NMeGly(cPent)][NMeD]-Morpholide; lactam N-11) | 4.1 | B (a compound having 3 or more and less than 10 is denoted as B) | B (a compound having 3 or more and less than 10 is denoted as B) |
| CCCN1C(=O)[C@@H]2CCN2C(=O)[C@H](C)N(C)C(=O)[C@H]([C@@H](C)CC)NC(=O)[C@H](CC(F)(F)F)N(C)C(=O)C[C@@H](C(=O)N2CCOCC2)N(C)C(=O)[C@H](C2CCCC2)N(C)C(=O)C2(CCCC2)NC(=O)[C@@H]2CCCN2C(=O)[C@H](CCc2ccc(C(F)(F)F)c(Cl)c2)NC(=O)CN(C)C(=O)[C@@H]1Cc1ccc(C(F)(F)F)cc1 [PP0191] ([NMeAbu(4,4,4-F3)]I[NMeA][Aze][NPrPhe(4-CF3)][Sar][hPhe(3-Cl-4-CF3)]P[Ac5c][NMeGly(cPent)][NMeD]-Morpholide; lactam N-11) | 3.9 | C (A compound having a KD ratio of 0.1 or more and less than 3 is denoted as C) | B (a compound having 3 or more and less than 10 is denoted as B) |
| CCCN1C(=O)[C@@H]2CCN2C(=O)[C@H](C)N(C)C(=O)[C@H]([C@@H](C)CC)NC(=O)[C@H](C2CCC2)N(C)C(=O)C[C@@H](C(=O)N2CCOCC2)N(C)C(=O)[C@H](C2CCCC2)N(C)C(=O)C2(CCCC2)NC(=O)[C@@H]2CCCN2C(=O)[C@H](CCc2ccc(C(F)(F)F)c(Cl)c2)NC(=O)CN(C)C(=O)[C@@H]1Cc1ccc(C(F)(F)F)cc1 [PP0192] ([NMeGly(cBu)]I[NMeA][Aze][NPrPhe(4-CF3)][Sar][hPhe(3-Cl-4-CF3)]P[Ac5c][NMeGly(cPent)][NMeD]-Morpholide; lactam N-11) | 2.6 | C (A compound having a KD ratio of 0.1 or more and less than 3 is denoted as C) | B (a compound having 3 or more and less than 10 is denoted as B) |
| CCC[C@H]1C(=O)N[C@@H]([C@@H](C)CC)C(=O)N(C)[C@@H](C)C(=O)N2CC[C@H]2C(=O)N(CCC)[C@@H](Cc2ccc(C(F)(F)F)cc2)C(=O)N(C)CC(=O)N[C@@H](CCc2ccc(C(F)(F)F)c(Cl)c2)C(=O)N2CCC[C@H]2C(=O)NC2(CCCC2)C(=O)N(C)[C@@H](C2CCCC2)C(=O)N(C)[C@H](C(=O)N2CCOCC2)CC(=O)N1C [PP0193] ([NMeNva]I[NMeA][Aze][NPrPhe(4-CF3)][Sar][hPhe(3-Cl-4-CF3)]P[Ac5c][NMeGly(cPent)][NMeD]-Morpholide; lactam N-11) | 1.4 | C (A compound having a KD ratio of 0.1 or more and less than 3 is denoted as C) | C (A compound having a KD ratio of 0.1 or more and less than 3 is denoted as C) |
| CCCN1C(=O)[C@@H]2CCN2C(=O)[C@H](C)N(C)C(=O)[C@H]([C@@H](C)CC)NC(=O)[C@H](CC)N(C)C(=O)C[C@@H](C(=O)N2CCOCC2)N(C)C(=O)[C@H](C2CCCC2)N(C)C(=O)C2(CCCC2)NC(=O)[C@@H]2CCCN2C(=O)[C@H](CCc2ccc(C(F)(F)F)c(Cl)c2)NC(=O)CN(C)C(=O)[C@@H]1Cc1ccc(C(F)(F)F)cc1 [PP0194] ([NMeAbu]I[NMeA][Aze][NPrPhe(4-CF3)][Sar][hPhe(3-Cl-4-CF3)]P[Ac5c][NMeGly(cPent)][NMeD]-Morpholide; lactam N-11) | 1.9 | C (A compound having a KD ratio of 0.1 or more and less than 3 is denoted as C) | B (a compound having 3 or more and less than 10 is denoted as B) |

Continued, in another order:

| IC50 [3] [nM] | SMILES | NRAS /KRAS [1] | HRAS /KRAS [2] |
| --- | --- | --- | --- |
| 2.7 | CCCN1C(=O)CN(C)C(=O)CN(C)C(=O)[C@H]([C@@H](C)CC)NC(=O)[C@H](CC(C)C)N(C)C(=O)C[C@@H](C(=O)N2CCOCC2)N(C)C(=O)[C@H](C2CCCC2)N(C)C(=O)C2(CCCC2)NC(=O)[C@@H]2CC(F)(F)CN2C(=O)[C@H](CCc2ccc(C(F)(F)F)c(Cl)c2)NC(=O)CN(C)C(=O)[C@@H]1Cc1ccc(C(F)(F)F)cc1 [PP0195] ([NMeL]I[Sar][Sar][NPrPhe(4-CF3)][Sar][hPhe(3-Cl-4-CF3)][Pro(4,4-F2)][Ac5c][NMeGly(cPent)][NMeD]-Morpholide; lactam N-11) | B (a compound having 3 or more and less than 10 is denoted as B) | C (A compound having a KD ratio of 0.1 or more and less than 3 is denoted as C) |
| 3.7 | CCCN1C(=O)[C@@H]2CCN2C(=O)[C@H](C)N(C)C(=O)[C@H]([C@@H](C)CC)NC(=O)[C@H](CC(C)C)N(C)C(=O)C[C@@H](C(=O)N2CCOCC2)N(C)C(=O)[C@H](C2CCCC2)N(C)C(=O)C2(CCCC2)NC(=O)[C@@H]2CC(F)(F)CN2C(=O)[C@H](CCc2ccc(C(F)(F)F)c(Cl)c2)NC(=O)CN(C)C(=O)[C@@H]1Cc1ccc(C(F)(F)F)cc1 [PP0196] ([NMeL]I[NMeA][Aze][NPrPhe(4-CF3)][Sar][hPhe(3-Cl-4-CF3)][Pro(4,4-F2)][Ac5c][NMeGly(cPent)][NMeD]-Morpholide; lactam N-11) | C (A compound having a KD ratio of 0.1 or more and less than 3 is denoted as C) | C (A compound having a KD ratio of 0.1 or more and less than 3 is denoted as C) |
| 3.6 | CCCN1C(=O)CN(C)C(=O)CN(C)C(=O)[C@H]([C@@H](C)CC)NC(=O)[C@H](CC(C)C)N(C)C(=O)C[C@@H](C(=O)N2CCOCC2)N(C)C(=O)[C@H](C2CCCC2)N(C)C(=O)C2(CCC2)NC(=O)[C@@H]2CCCN2C(=O)[C@H](CCc2ccc(C(F)(F)F)c(Cl)c2)NC(=O)CN(C)C(=O)[C@@H]1Cc1ccc(C(F)(F)F)cc1 [PP0197] ([NMeL]I[Sar][Sar][NPrPhe(4-CF3)][Sar][hPhe(3-Cl-4-CF3)]P[Ac4c][NMeGly(cPent)][NMeD]-Morpholide; lactam N-11) | B (a compound having 3 or more and less than 10 is denoted as B) | C (A compound having a KD ratio of 0.1 or more and less than 3 is denoted as C) |
| 5.7 | CCCN1C(=O)[C@@H]2CCN2C(=O)[C@H](C)N(C)C(=O)[C@H]([C@@H](C)CC)NC(=O)[C@H](CC(C)C)N(C)C(=O)C[C@@H](C(=O)N2CCOCC2)N(C)C(=O)[C@H](C2CCCC2)N(C)C(=O)C2(CCC2)NC(=O)[C@@H]2CCCN2C(=O)[C@H](CCc2ccc(C(F)(F)F)c(Cl)c2)NC(=O)CN(C)C(=O)[C@@H]1Cc1ccc(C(F)(F)F)cc1 [PP0198] ([NMeL]I[NMeA][Aze][NPrPhe(4-CF3)][Sar][hPhe(3-Cl-4-CF3)]P[Ac4c][NMeGly(cPent)][NMeD]-Morpholide; lactam N-11) | C (A compound having a KD ratio of 0.1 or more and less than 3 is denoted as C) | B (a compound having 3 or more and less than 10 is denoted as B) |
| 3.5 | CCCN1C(=O)CN(C)C(=O)CN(C)C(=O)[C@H]([C@@H](C)CC)NC(=O)[C@H](CC(F)(F)F)N(C)C(=O)C[C@@H](C(=O)N2CCOCC2)N(C)C(=O)[C@H](C2CCCC2)N(C)C(=O)C2(CCCC2)NC(=O)[C@@H]2CC(F)(F)CN2C(=O)[C@H](CCc2ccc(C(F)(F)F)c(Cl)c2)NC(=O)CN(C)C(=O)[C@@H]1Cc1ccc(C(F)(F)F)cc1 [PP0199] ([NMeAbu(4,4,4-F3)]I[Sar][Sar][NPrPhe(4-CF3)][Sar][hPhe(3-Cl-4-CF3)][Pro(4,4-F2)][Ac5c][NMeGly(cPent)][NMeD]-Morpholide; lactam N-11) | B (a compound having 3 or more and less than 10 is denoted as B) | C (A compound having a KD ratio of 0.1 or more and less than 3 is denoted as C) |
| 2.5 | CCCN1C(=O)CN(C)C(=O)CN(C)C(=O)[C@H]([C@@H](C)CC)NC(=O)[C@H](C2CCC2)N(C)C(=O)C[C@@H](C(=O)N2CCOCC2)N(C)C(=O)[C@H](C2CCCC2)N(C)C(=O)C2(CCCC2)NC(=O)[C@@H]2CC(F)(F)CN2C(=O)[C@H](CCc2ccc(C(F)(F)F)c(Cl)c2)NC(=O)CN(C)C(=O)[C@@H]1Cc1ccc(C(F)(F)F)cc1 [PP0200] ([NMeGly(cBu)]I[Sar][Sar][NPrPhe(4-CF3)][Sar][hPhe(3-Cl-4-CF3)][Pro(4,4-F2)][Ac5c][NMeGly(cPent)][NMeD]-Morpholide; lactam N-11) | C (A compound having a KD ratio of 0.1 or more and less than 3 is denoted as C) | C (A compound having a KD ratio of 0.1 or more and less than 3 is denoted as C) |
| 3.4 | CCC[C@H]1C(=O)N[C@@H]([C@@H](C)CC)C(=O)N(C)CC(=O)N(C)CC(=O)N(CCC)[C@@H](Cc2ccc(C(F)(F)F)cc2)C(=O)N(C)CC(=O)N[C@@H](CCc2ccc(C(F)(F)F)c(Cl)c2)C(=O)N2CC(F)(F)C[C@H]2C(=O)NC2(CCCC2)C(=O)N(C)[C@@H](C2CCCC2)C(=O)N(C)[C@H](C(=O)N2CCOCC2)CC(=O)N1C [PP0201] ([NMeNva]I[Sar][Sar][NPrPhe(4-CF3)][Sar][hPhe(3-Cl-4-CF3)][Pro(4,4-F2)][Ac5c][NMeGly(cPent)][NMeD]-Morpholide; lactam N-11) | B (a compound having 3 or more and less than 10 is denoted as B) | C (A compound having a KD ratio of 0.1 or more and less than 3 is denoted as C) |
